Measurements published in US10226451B2, “Substituted bicyclic compounds as bromodomain inhibitors” (ZENITH EPIGENETICS LTD, priority 2013, dated 2019).

Columns and labels:
[1] = target: T1, Brd4 bromodomain 1 (BRD4(1)) (Homo sapiens, UniProt O60885); assay: Inhibition of tetra-acetylated histone H4 binding to Brd4 bromodomain 1 (HTRF/FRET); settings: tetra-acetylated histone H4 peptide, His-tagged bromodomain 200 nM, 2 h
T1 construct: made in house; host or cells: E. coli BL21(DE3)
Protocol: Proteins were cloned and overexpressed with a N-terminal 6×His tag, then purified by nickel affinity followed by size exclusion chromatography. Briefly, E. coli BL21(DE3) cells were transformed with a recombinant expression vector encoding N-terminally Nickel affinity tagged bromodomains from Brd2, Brd3, Brd4. Cell cultures were incubated at 37° C. with shaking to the appropriate density and induced overnight with IPTG. The supernatant of lysed cells was loaded onto Ni-IDA column for purification. Eluted protein was pooled, concentrated and further purified by size exclusion chromatography. Fractions representing monomeric protein were pooled, concentrated, aliquoted, and frozen at −80° C. for use in subsequent experiments.
Binding of tetra-acetylated histone H4 and BET bromodomains was confirmed by a Homogenous Time Resolved Fluorescence Resonance Energy Transfer (HTRF®) method. N-terminally His-tagged bromodomains (200 nM) and biotinylated tetra-acetylated histone H4 peptide (25-50 nM, Millipore) were incubated in the presence of Europium Cryptate-labeled streptavidin (Cisbio Cat. #610SAKLB) and XL665-labeled monoclonal anti-His antibody (Cisbio Cat. #61HISXLB) in a white 96 well microtiter plate (Greiner). For inhibition assays, serially diluted test compound was added to these reactions in a 0.2% final concentration of DMSO. Duplicate wells were used for each concentration tested. Final buffer concentrations were 30 mM HEPES pH 7.4, 30 mM NaCl, 0.3 mM CHAPS, 20 mM phosphate pH 7.0, 320 mM KF, 0.08% BSA. After a 2 h incubation at room temperature, fluorescence was measured at 665 and 620 nm with a SynergyH4 plate reader (Biotek). The binding inhibitory activity was shown by a decrease in 665 nm relative to 620 nm fluorescence. IC50 values were determined from a dose response curve.

hIL-6 mRNA in U937 cells = assay: Inhibition of hIL-6 mRNA transcription in LPS-stimulated U937 cells; format: cell-based; settings: Homo sapiens, U-937, PMA-differentiated U937 cells, LPS 1 ug/mL, 3 h, read-out: IL-6 activity
Protocol: In this example, hIL-6 mRNA in tissue culture cells were quantitated to measure the transcriptional inhibition of hIL-6 when treated with a compound of the present disclosure.
Human leukemic monocyte lymphoma U937 cells (CRL-1593.2) were plated at a density of 3.2×10^4 cells per well in a 96-well plate in 100 μL RPMI-1640 containing 10% FBS and penicillin/streptomycin, and differentiated into macrophages for 3 days in 60 ng/mL PMA ([…]) at 37° C. in 5% CO2 prior to the addition of compound. The cells were pretreated for 1 h with increasing concentrations of test compound in 0.1% DMSO prior to stimulation with 1 ug/mL lipopolysaccharide from Escherichia coli. Triplicate wells were used for each concentration. The cells were incubated at 37° C., 5% CO2 for 3 h before the cells were harvested. At time of harvest, media was removed and cells were rinsed in 200 μL PBS. Cells were harvested using the mRNA Catcher PLUS kit according to manufacturer's instructions. The eluted mRNA was then used in a one-step quantitative real-time PCR reaction using components of the RNA UltraSense™ One-Step Kit (Life Technologies) together with Applied Biosystems TaqMan® primer-probes for hIL-6 and Cyclophilin. Real-time PCR plates were run on a ViiA™7 real time PCR machine (Applied Biosystems), data was analyzed, normalizing the Ct values for hIL-6 to an internal control, prior to determining the fold expression of each sample, relative to the control.

Human AML MV-4-11 cells = assay: Inhibition of cell proliferation in MV4-11 cells (CellTiter Aqueous One); format: cell-based; settings: 72 h
Protocol: In this example, cell titer in MV4-11 cells were quantitated to measure the inhibition of proliferation when treated with a compound of the present disclosure.
MV4-11 cells (CRL-9591) were plated at a density of 5×10^4 cells per well in 96 well flat bottom plates and treated with increasing concentrations of test compound or DMSO (0.1%) in IMDM media containing 10% FBS and penicillin/streptomycin. Triplicate wells were used for each concentration and a well containing only media was used as a control. Plates were incubated at 37° C., 5% CO2 for 72 h before adding 20 μL of the CellTiter Aqueous One Solution (Promega) to each well and incubated at 37° C., 5% CO2 for an additional 3-4 h. The absorbance was read at 490 nm in a spectrophotometer and the percentage of cell titer relative to DMSO-treated cells was calculated after correcting for background by subtracting the blank well's signal. IC50 values were calculated using the Graph Pad Prism software.

[2] = tested on: c-myc in Human AML MV4-11 cells; assay: Inhibition of c-MYC expression (mRNA, real-time PCR) in MV4-11 cells; format: cell-based; settings: 3 h, mRNA by real-time PCR
Protocol: MV4-11 cells (CRL-9591) were plated at a density of 2.5×10^4 cells per well in 96 well U-bottom plates and treated with increasing concentrations of test compound or DMSO (0.1%) in IMDM media containing 10% FBS and penicillin/streptomycin, and incubated for 3 h at 37° C. Triplicate wells were used for each concentration. Cells were pelleted by centrifugation and harvested using the mRNA Catcher PLUS kit according to manufacturer's instructions. The eluted mRNA isolated was then used in a one-step quantitative real-time PCR reaction, using components of the RNA UltraSense™ One-Step Kit (Life Technologies) together with Applied Biosystems TaqMan® primer-probes for cMYC and Cyclophilin. Real-time PCR plates were run on a ViiA™7 real time PCR machine (Applied Biosystems), data was analyzed, normalizing the Ct values for hMYC to an internal control, prior to determining the fold expression of each sample, relative to the control.

IC50 [1]	IC50 (hIL-6 mRNA in U937 cells)	IC50 (Human AML MV-4-11 cells)	IC50 [2]	SMILES
≤ 300 nM	≤ 300 nM	300 to 3000 nM	≤ 300 nM	Cc1cncc(C)c1-c1cc(-c2c(C)noc2C)cc2[nH]c(=O)n(C)c12 [Example Compound 39, 5-(3,5-dimethylisoxazol-4-yl)-7-(3,5-dimethylpyridin-4-yl)-1-methyl-1H-benzo[d]imidazol-2(3H)-one]
≤ 300 nM		300 to 3000 nM	300 to 3000 nM	Cc1noc(C)c1-c1cc(-c2c(C)noc2C)c2c(c1)n(C)c(=O)n2C [Example Compound 15, 4,6-bis(3,5-dimethylisoxazol-4-yl)-1,3-dimethyl-1H-benzo[d]imidazol-2(3H)-one]
≤ 300 nM	≤ 300 nM	300 to 3000 nM	≤ 300 nM	Cc1ncccc1Nc1cc(-c2c(C)noc2C)cc2[nH]c(=O)n(C)c12 [Example Compound 27, 5-(3,5-dimethylisoxazol-4-yl)-1-methyl-7-((2-methylpyridin-3-yl)amino)-1H-benzo[d]imidazol-2(3H)-one]
≤ 300 nM	≤ 300 nM	300 to 3000 nM	≤ 300 nM	Cc1noc(C)c1-c1cc(-c2cccc3ccccc23)c2c(c1)[nH]c(=O)n2C [Example Compound 34, 5-(3,5-dimethylisoxazol-4-yl)-1-methyl-7-(naphthalen-1-yl)-1H-benzo[d]imidazol-2(3H)-one]
≤ 300 nM	300 to 3000 nM	300 to 3000 nM	≤ 300 nM	Cc1ccc(Cl)cc1-c1cc(-c2c(C)noc2C)cc2[nH]c(=O)n(C)c12 [Example Compound 19, 7-(5-chloro-2-methylphenyl)-5-(3,5-dimethylisoxazol-4-yl)-1-methyl-1H-benzo[d]imidazol-2(3H)-one]
≤ 300 nM	300 to 3000 nM	300 to 3000 nM		COc1ccc(C)cc1-c1cc(-c2c(C)noc2C)cc2[nH]c(=O)n(C)c12 [Example Compound 12, 5-(3,5-dimethylisoxazol-4-yl)-7-(2-methoxy-5-methylphenyl)-1-methyl-1H-benzo[d]imidazol-2(3H)-one]
300 to 3000 nM	300 to 3000 nM	3000 to 30000 nM	300 to 3000 nM	Cc1nc(C)c(-c2cc(-c3c(C)noc3C)cc3[nH]c(=O)n(C)c23)s1 [Example Compound 44, 5-(3,5-dimethylisoxazol-4-yl)-7-(2,4-dimethylthiazol-5-yl)-1-methyl-1H-benzo[d]imidazol-2(3H)-one]
≤ 300 nM	300 to 3000 nM	300 to 3000 nM	≤ 300 nM	Cc1ccc(C#N)cc1-c1cc(-c2c(C)noc2C)cc2[nH]c(=O)n(C)c12 [Example Compound 16, 3-(6-(3,5-dimethylisoxazol-4-yl)-3-methyl-2-oxo-2,3-dihydro-1H-benzo[d]imidazol-4-yl)-4-methylbenzonitrile]
≤ 300 nM				COc1ccc(F)c(-c2cc(-c3c(C)noc3C)cc3[nH]c(=O)n(C)c23)c1 [Example Compound 41, 5-(3,5-dimethylisoxazol-4-yl)-7-(2-fluoro-5-methoxyphenyl)-1-methyl-1H-benzo[d]imidazol-2(3H)-one]
300 to 3000 nM		300 to 3000 nM	300 to 3000 nM	Cc1noc(C)c1-c1cc(-c2cnc3ccccc3c2)c2c(c1)[nH]c(=O)n2C [Example Compound 36, 5-(3,5-dimethylisoxazol-4-yl)-1-methyl-7-(quinolin-3-yl)-1H-benzo[d]imidazol-2(3H)-one]
≤ 300 nM		300 to 3000 nM	≤ 300 nM	COc1ccncc1-c1cc(-c2c(C)noc2C)cc2[nH]c(=O)n(C)c12 [Example Compound 17, 5-(3,5-dimethylisoxazol-4-yl)-7-(4-methoxypyridin-3-yl)-1-methyl-1H-benzo[d]imidazol-2(3H)-one]
≤ 300 nM	300 to 3000 nM			Cc1noc(C)c1-c1cc(-c2c(Cl)cncc2Cl)c2c(c1)[nH]c(=O)n2C [Example Compound 35, 7-(3,5-dichloropyridin-4-yl)-5-(3,5-dimethylisoxazol-4-yl)-1-methyl-1H-benzo[d]imidazol-2(3H)-one]
300 to 3000 nM		300 to 3000 nM	300 to 3000 nM	Cc1noc(C)c1-c1cc(-c2ccccc2Cl)c2c(c1)[nH]c(=O)n2C [Example Compound 37, 7-(2-chlorophenyl)-5-(3,5-dimethylisoxazol-4-yl)-1-methyl-1H-benzo[d]imidazol-2(3H)-one]
300 to 3000 nM				COc1cccc(-c2cc(-c3c(C)noc3C)cc3[nH]c(=O)n(C)c23)c1F [Example Compound 43, 5-(3,5-dimethylisoxazol-4-yl)-7-(2-fluoro-3-methoxyphenyl)-1-methyl-1H-benzo[d]imidazol-2(3H)-one]
≤ 300 nM				COc1ccc(Cl)cc1-c1cc(-c2c(C)noc2C)cc2[nH]c(=O)n(C)c12 [Example Compound 42, 7-(5-chloro-2-methoxyphenyl)-5-(3,5-dimethylisoxazol-4-yl)-1-methyl-1H-benzo[d]imidazol-2(3H)-one]
≤ 300 nM		300 to 3000 nM	≤ 300 nM	Cc1ccncc1-c1cc(-c2c(C)noc2C)cc2[nH]c(=S)[nH]c12 [Example Compound 24, 6-(3,5-dimethylisoxazol-4-yl)-4-(4-methylpyridin-3-yl)-1H-benzo[d]imidazole-2-thiol]
≤ 300 nM		300 to 3000 nM	≤ 300 nM	Cc1noc(C)c1-c1cc(-c2cccc(C#N)c2C)c2c(c1)[nH]c(=O)n2C [Example Compound 14, 3-(6-(3,5-dimethylisoxazol-4-yl)-3-methyl-2-oxo-2,3-dihydro-1H-benzo[d]imidazol-4-yl)-2-methylbenzonitrile]
≤ 300 nM				Cc1noc(C)c1-c1cc(-c2ccc3ocnc3c2)c2c(c1)[nH]c(=O)n2C [Example Compound 46, 7-(benzo[d]oxazol-5-yl)-5-(3,5-dimethylisoxazol-4-yl)-1-methyl-1H-benzo[d]imidazol-2(3H)-one]
≤ 300 nM		300 to 3000 nM	≤ 300 nM	Cc1ccc(C#N)cc1-c1cc(-c2c(C)noc2C)cc2[nH]c(=S)[nH]c12 [Example Compound 25, 3-(6-(3,5-dimethylisoxazol-4-yl)-2-thioxo-2,3-dihydro-1H-benzo[d]imidazol-4-yl)-4-methylbenzonitrile]
